We go through ten compounds from ChEMBL document CHEMBL5365413, “Optimizing metabolic stability of phosphodiesterase 5 inhibitors: Discovery of a potent N-(pyridin-3-ylmethyl)quinoline derivative targeting synaptic plasticity” (Bioorg Med Chem Lett, 2023).

For series [1], the target named is cGMP-specific 3',5'-cyclic phosphodiesterase (Homo sapiens, UniProt O76074). Description: Inhibition of human recombinant PDE5A1 by fluorescence based assay.
Series [2] can be described thus: Metabolic stability in human liver microsomes assessed as intrinsic clearance. It is filed as ADME, Microsome. For orientation: Liver microsomes are a subcellular fraction often used to study metabolism.
Series [3] can be described thus: Metabolic stability in human liver microsomes assessed as half life. Type of series: ADME, Microsome.
Series [4] is described as follows: Inhibition of PDE6 (unknown origin) by fluorescent based assay. On the set-up: species or system Homo sapiens.
Series [5] is described as follows: Inhibition of PDE10 (unknown origin) by fluorescent based assay. On the set-up: species or system Homo sapiens.
Series [6] is described as follows: Inhibition of PDE2 (unknown origin) by fluorescent based assay. On the set-up: species or system Homo sapiens.
Series [7] in a line: Inhibition of PDE1 (unknown origin) by fluorescent based assay. The arrangement: species or system Homo sapiens.
The nature of series [8]: Inhibition of PDE11 (unknown origin) by fluorescent enzymatic assay. The arrangement: species or system Homo sapiens.
Series [9] in a line: Inhibition of PDE9 (unknown origin) by fluorescent based assay. The arrangement: species or system Homo sapiens.
The nature of series [10]: Selectivity index, ratio of IC50 for inhibition of PDE6 (unknown origin) to IC50 for inhibition of human recombinant PDE5A1.
A short description of series [11]: Inhibition of PDE8 (unknown origin) by fluorescent based assay. The arrangement: species or system Homo sapiens.
A short description of series [12]: Inhibition of PDE3 (unknown origin) by fluorescent based assay. The arrangement: species or system Homo sapiens.
The nature of series [13]: Selectivity index, ratio of IC50 for inhibition of PDE11 (unknown origin) to IC50 for inhibition of human recombinant PDE5A1.
Series [14] addresses Phosphodiesterase 4 (Homo sapiens, UniProt P27815+Q08499+Q07343+Q08493). The series is described as follows: Inhibition of PDE4 (unknown origin) by fluorescent based assay. It is filed as protein assay.
The nature of series [15]: Selectivity index, ratio of IC50 for inhibition of PDE3 (unknown origin) to IC50 for inhibition of human recombinant PDE5A1.
A short description of series [16]: Selectivity index, ratio of IC50 for inhibition of PDE4 (unknown origin) to IC50 for inhibition of human recombinant PDE5A1.
Series [17] in a line: Selectivity index, ratio of IC50 for inhibition of PDE9 (unknown origin) to IC50 for inhibition of human recombinant PDE5A1.
Series [18] deals with Hippocampus. The series is described as follows: Neuroprotective activity against o-Tau perfused mouse hippocampus tissue assessed as restoration of synaptic plasticity by measuring residual potentiation at 50 nM for 10 min followed by tetanus stimulation and measured for 2 hrs by electrophysiology analysis relative to control. It is filed as functional, tissue-based. The settings on record: time 130.0 min.

The test system of series [19] is Hippocampus. Description: Neuroprotective activity against mouse hippocampus tissue assessed as restoration of synaptic plasticity by measuring residual potentiation at 50 nM for 10 min followed by tetanus stimulation and measured for 2 hrs by electrophysiology analysis relative to control. It is filed as functional, tissue-based. The settings on record: time 130.0 min.

The subject of series [20] is Hippocampus. Description: Neuroprotective activity against o-Tau perfused mouse hippocampus tissue assessed as restoration of synaptic plasticity by measuring hippocampal […] at 50 nM for 10 min followed by tetanus stimulation and measured for 2 hrs by electrophysiology analysis. Type of series: functional, tissue-based. The settings on record: time 130.0 min.
The target in series [21] is Phosphodiesterase 7 (Homo sapiens, UniProt Q13946+Q9NP56). The series is described as follows: Inhibition of PDE7 (unknown origin) by fluorescent based assay. It is filed as protein assay.
Series [22] in a line: Selectivity index, ratio of IC50 for inhibition of PDE10 (unknown origin) to IC50 for inhibition of human recombinant PDE5A1.
A short description of series [23]: Selectivity index, ratio of IC50 for inhibition of PDE2 (unknown origin) to IC50 for inhibition of human recombinant PDE5A1.
The nature of series [24]: Selectivity index, ratio of IC50 for inhibition of PDE7 (unknown origin) to IC50 for inhibition of human recombinant PDE5A1.
Series [25] in a line: Selectivity index, ratio of IC50 for inhibition of PDE1 (unknown origin) to IC50 for inhibition of human recombinant PDE5A1.
A short description of series [26]: Selectivity index, ratio of IC50 for inhibition of PDE8 (unknown origin) to IC50 for inhibition of human recombinant PDE5A1.

The source made the active and inactive calls. No cut-off for these calls is given here.

The term IC50 denotes the concentration that inhibits the measured activity by half.

With `Cn1ccc2cc(CNc3c(CO)cnc4c(C5CC5)cc(C#N)cc34)ccc21`, the IC50 in [1] amounted to 2800 nM.
As for `[2H]C([2H])(Nc1c(CO)cnc2c(C3CC3)cc(C#N)cc12)c1ccc(OC)c(Cl)c1`, the CLH in series [2] was determined as 85 µL/min/mg. For the same compound, in [1], the IC50 worked out at 5 nM. The t1/2 in [3] is reported as 16.4 min.
With `CCOC(=O)c1cnc2c(C3CC3)cc(C#N)cc2c1NCc1ccc(OC)nc1`, the IC50 in series [1] was found to be 1300 nM.
Still for that read-out and setting: under `COc1cc(CNc2c(CO)cnc3c(C4CC4)cc(C#N)cc23)cc(OC)c1OC` stands 3400 nM.
As for `N#Cc1cc(C2CC2)c2ncc(CO)c(NCc3ccnc(Cl)c3)c2c1`, the CLH in [2] is 80 µL/min/mg. The IC50 in series [1] stood at 820 nM. In addition, the t1/2 in [3] was found to be 17.3 min.
Turning to `N#Cc1cc(C2CC2)c2ncc(CO)c(NCc3ccc4c(c3)OCO4)c2c1`, the CLH in [2] amounted to 88 µL/min/mg. Besides, the IC50 in [1] is 190 nM. Moreover, the t1/2 in [3] came out at 15.7 min.
`COc1ncc(CNc2c(CO)cnc3c(C4CC4)cc(C#N)cc23)cc1Cl`: in [2], the CLH amounted to 72 µL/min/mg. Further, the IC50 in series [4] is 58 nM; in series [5] it was “Not Active”; in series [6], more than 10000 nM; in [7], “Not Active”; in series [8], “Not Active”; in [1], 30 nM. Further, the IC50 result in series [9], in series [11] and in [12] was “Not Active” throughout. Further, in [10], the Ratio IC50 was determined as 1.9. Moreover, the t1/2 in series [3] was found to be 19.5 min.
`COc1ccc(CNc2c(CO)cnc3c(C4CC4)cc(C#N)cc23)cc1Cl`: the CLH in series [2] was found to be 80 µL/min/mg. Moreover, the t1/2 in series [3] stood at 20.5 min.
For the compound `COc1cc(CNc2c(CO)cnc3c(C4CC4)cc(C#N)cc23)ccn1`, the CLH in series [2] amounted to 48 µL/min/mg. In series [1], the IC50 was 180 nM. Also, the t1/2 in series [3] was found to be 28.8 min.
`COc1ccc(CNc2c(CO)cnc3c(C4CC4)cc(C#N)cc23)cn1`: the Ratio IC50 in [13] is more than 500; in series [15], more than 500; in series [16], more than 500; in series [17] it was more than 500; in [10], 13; in [22], more than 500. In addition, the Ratio IC50 in series [23] is 9; in [24], more than 500; in series [25], more than 500; in series [26] it was more than 500. In addition, the IC50 in series [14] is more than 10000 nM; in series [4] it was 260 nM; in series [5] (read-out: IC50), more than 10000 nM; in [6] it was 180 nM; in series [7] (read-out: IC50) it was more than 10000 nM; in series [8] (read-out: IC50), more than 10000 nM. Besides, the IC50 in series [9] (read-out: IC50), in series [21], in series [11] (read-out: IC50) and in series [12] (read-out: IC50) was more than 10000 nM in each case. Besides, the CLH in [2] is 31 µL/min/mg. Further, the outcome in series [18] and in series [20] was Active. Further, the outcome in [19] was inactive. Besides, the t1/2 in series [3] is 44.6 min.
